Structures can show the parent of a compound that is named as a salt. Where two headings read alike, the source gives them in different places.
Assays:
[1] = molecular target: T1, human inducible NOS (hiNOS) (Homo sapiens, UniProt P35228); test: Citrulline Assay for Nitric Oxide Synthase, hiNOS; format: biochemical; details: recombinant human inducible NOS, 37° C., 15 minutes
T1 construct: made in house; host or cells: insect cells, baculovirus vector
Description: (§1) Citrulline Assay for Nitric Oxide Synthase
(§2) Nitric oxide synthase activity was measured by monitoring the conversion of L-[2,3-3H]-arginine to L-[2,3-3H]-citrulline (1,2). The cDNA for human inducible NOS (hiNOS) was isolated from a lcDNA library made from RNA extracted from a colon sample from a patient with ulcerative colitis; human endothelial constitutive NOS (hecNOS) was isolated from a lcDNA library made from RNA extracted from human umbilical vein endothelial cells (HUVEC); and human neuronal constitutive NOS (hncNOS) was isolated from a lcDNA library made from RNA extracted from human cerebellum from a cadaver. The recombinant enzymes were expressed in insect cells using a baculovirus vector. Enzyme activity was isolated from cell extracts and partially purified by DEAE-Sepharose chromatography (2). […] For constitutive NOS, calmodulin was included at a final concentration of 40-100 nM. Following incubation at 37° C. for 15 minutes, the reaction was terminated by addition of 300 μL cold buffer containing 10 mM EGTA, 100 mM HEPES (pH5.5) and 1.0 mM L-citrulline. The [3H]-citrulline was separated by chromatography on Dowex 50W X-8 cation exchange resin and radioactivity quantified with a liquid scintillation counter.

[2] = molecular target: T2, human endothelial constitutive NOS (hecNOS) (Homo sapiens, UniProt P29474); test: Citrulline Assay for Nitric Oxide Synthase, hecNOS; format: biochemical; details: recombinant human endothelial constitutive NOS, 37° C., 15 minutes, calmodulin 40-100 nM
T2 construct: made in house; host or cells: insect cells, baculovirus vector
Description: as §1, §2

[3] = molecular target: T3, human neuronal constitutive NOS (hncNOS) (Homo sapiens, UniProt P29475); test: biochemical; details: recombinant human neuronal constitutive NOS, 37° C., 15 minutes, calmodulin 40-100 nM
T3 construct: made in house; host or cells: insect cells, baculovirus vector
Description: as §1, §2

RAW cell miNOS = molecular target: T4, RAW cell miNOS (Mus musculus, UniProt P29477); test: Raw Cell Nitrite Assay; format: cell-based; details: RAW 264.7 cells, LPS-induced, L-arginine 30 μM, nitrite production 1 h at 37° C.
T4 construct: in the presence of LPS to induce NOS; endogenous in cells; host or cells: RAW 264.7 cells, LPS-induced
Description: RAW 264.7 cells are plated to confluency on a 96-well tissue culture plate grown overnight (17 h) in the presence of LPS to induce NOS. […] The media is removed from each well and the cells are washed twice with Krebs-Ringers-Hepes (25 mM, pH 7.4) with 2 mg/ml glucose. The cells are then placed on ice and incubated with 50 μL of buffer containing L-arginine (30 μM) ± inhibitors for 1 h. The assay is initiated by warming the plate to 37° C. in a water bath for 1 h. […] To terminate the cellular assay, the plate of cells is placed on ice and the nitrite-containing buffer removed and analyzed for nitrite using a previously published fluorescent determination for nitrite. All values are the average of triplicate wells and are compared to a background-subtracted induced set of cells (100% value).

Plasma Nitrites/Nitrates = test: In Vivo Assay: plasma nitrites/nitrates, Endotoxin in Rat Model; design: species or system Rats; details: 10 mg/kg p.o., 1 hour prior to LPS 10 mg/kg i.p., plasma nitrites 5 hours post-treatment
Description: In Vivo Assay Rats were treated with an intraperitoneal injection of 10 mg/kg of endotoxin (LPS) with or without oral administration of the nitric oxide synthase inhibitors administered 1 hour prior to LPS. Plasma nitrites were measured 5 hours post-treatment.

| Structure (SMILES) | IC50 [1] [µM] | IC50 [2] [µM] | IC50 ([3]; read-out: IC50 hncNOS) [µM] | IC50 (RAW cell miNOS; read-out: IC50 RAW cell miNOS) [µM] | % Inhibition of Plasma Nitrites/Nitrates (Plasma Nitrites/Nitrates) [%] | IC50 ([3]; IC50 hncNOS) [µM] | IC50 (RAW cell miNOS; IC50 RAW cell miNOS) [µM] |
| --- | --- | --- | --- | --- | --- | --- | --- |
| N=C1CCCCC(Cc2ccccc2)N1 (single isomer, unassigned; (+)) [Example 14, (+)-hexahydro-7-(phenylmethyl)-1H-azepin-2-imine, Monohydrochloride] | 62 | 651 | 30 | 170 | – | – | – |
| N=C1CCCCC(CC2CCCCC2)N1 (stereo not shown) [Example 9, 7-(cyclohexylmethyl)hexahydro-1H-azepin-2-imine, Monohydrochloride] | 9.7 | 575 | 74 | > 100 | – | – | – |
| N=C1CCCCC(C/C=C/c2ccccc2)N1 (stereo not shown) [Example 34, Hexahydro-7-(3-phenyl-2-propenyl)-1H-azepin-2-imine, Monohydrochloride] | 8.1 | 183 | 24 | – | – | – | – |
| N=C1CCCCC(CCCc2ccccc2)N1 (stereo not shown) [Example 37, Hexahydro-7-(3-phenylpropyl)-1H-azepin-2-imine, Monohydrochloride] | 19 | 836 | 118 | 80 | – | – | – |
| NC1=NC(Cc2ccccc2)CCC1 (stereo not shown) [Example 94, 6-(phenylmethyl)piperidin-2-imine, Monohydrochloride] | – | – | – | – | – | 0.71 | 7.9 |
| N=C1CCCC(CC2CCCCC2)N1 (stereo not shown) [Example 95, 6-(cyclohexylmethyl)piperidin-2-imine, Monohydrochloride] | 5.9 | 375 | 28 | – | – | – | – |
| N=C1CCCCC(CC2CC(c3ccccc3)=NO2)N1 (stereo not shown) [Example 191, 7-[(4,5-dihydro-3-phenylisoxazolyl-5-yl)methyl]hexahydro-1H-azepine-2-imine, Monotrifluoroacetic Acid Salt] | – | – | – | 45 | – | – | – |

Further molecules by falling IC50 ([3]; read-out: IC50 hncNOS), results first:

| IC50 [1] [µM] | IC50 [2] [µM] | IC50 ([3]; read-out: IC50 hncNOS) [µM] | IC50 (RAW cell miNOS; read-out: IC50 RAW cell miNOS) [µM] | Structure (SMILES) | % Inhibition of Plasma Nitrites/Nitrates (Plasma Nitrites/Nitrates) [%] | IC50 ([3]; IC50 hncNOS) [µM] | IC50 (RAW cell miNOS; IC50 RAW cell miNOS) [µM] |
| --- | --- | --- | --- | --- | --- | --- | --- |
| 6.2 | 792 | 15 | 66 | Cl.N=C1CCCCC(Cc2ccccc2)N1 (stereo not shown) [Example 5, Hexahydro-7-(phenylmethyl)-1H-azepin-2-imine, Monohydrochloride] | 37 | – | – |
| 3.6 | 599 | 14 | 1.8 | N=C1CCCCC(Cc2ccccc2)N1 (single isomer, unassigned; (-)) [Example 16, (-)-hexahydro-7-(phenylmethyl)-1H-azepin-2-imine, Monohydrochloride] | – | – | – |
| – | – | 8.4 | 28 | N=C1CCCCC(CC2CO2)N1 (stereo not shown) [Example 21, Hexahydro-7-[(oxiran-2-yl)methyl]-1H-azepin-2-imine, Monohydrochloride] | – | – | – |
| 3 | 458 | 8.3 | 5.4 | C[C@@H]1CC(=N)N[C@H]1Cc1ccccc1 (relative stereo) [Example 64, (±) (trans) 4-methyl-5-(phenylmethyl)pyrrolidin-2-imine, Monohydrochloride] | 35 | – | – |

Source: US6043261A, “Pyrrolodino imidines useful as nitric oxide synthase inhibitors” (G. D. Searle & Co., priority 1998, dated 2000)
